Experimental data from US8013010B2, “5-thioxylopyranose compounds” (Laboratoires Fournier S.A., priority 2006, dated 2011).

Columns and labels:
[1] = system: venous thrombosis; experiment: venous thrombosis test in rats (venous stasis under hypercoagulation with factor Xa, Wessler technique), activity via the oral route; assay type: in vivo, rat; settings: male Wistar rats, dose 6 mg/kg, thrombosis induced 2 h after administration
Description: The antithrombotic activity of the compounds according to the invention was studied in vivo in rats by virtue of a test in which a venous thrombosis is reproduced. The venous thrombosis was induced according to the protocol described in Thromb. Haemost., 1992, 67(1), 176-179. The activity via the oral route was studied according to the procedure described below. The experiment is carried out on non-fasting male Wistar rats weighing from 250 to 280 g and divided into groups of 10 animals each. The test products are administered orally (intubation) in solution or in suspension in a methylcellulose solution (0.5% in water). The concentrations of the compounds are calculated so as to bring about the absorption of an amount of solution of 10 ml/kg orally. A thrombosis is induced at time T after the administration of the product and the thrombus formed is removed and weighed. In order to induce this thrombosis, a venous stasis is brought about under hypercoagulation, according to the technique described by Wessler (J. Applied Physiol., 1959, 943-946), using a solution of activated factor X (Xa), supplied by Biogenic (Montpellier) and comprising a dose of 7.5 nKat/kg, as hypercoagulant. The venous stasis is brought about 10 seconds exactly after the injection of the hypercoagulant. The activity of the test compounds was monitored at various doses, after they had been administered. The thrombosis was induced 2 hours after the administration of the compound. By way of example, the results of the above tests are given in the following table for a few compounds according to the invention (the activity is expressed by the percentage of inhibition of the formation of the thrombus, observed in the presence of the compound according to the invention, with respect to the weight of the thrombus formed in the absence of the compound).

| SMILES | melting point [°C] | Activity (percentage of inhibition of the formation of the thrombus) [1] [%] |
| --- | --- | --- |
| O[C@@H]1[C@@H](O)[C@H](Oc2ccc(-c3cccnc3)cc2)SC[C@H]1O [Example 6, 4-(3-Pyridinyl)phenyl 5-thio-β-D-xylopyranoside] | 166 |  |
| O[C@@H]1[C@@H](O)[C@H](Oc2ccc(-c3ccncc3)cc2)SC[C@H]1O [Example 8, 4-(4-Pyridinyl)phenyl-5-thio-β-D-xylopyranoside] |  | 91 |
| O[C@@H]1[C@@H](O)[C@H](Oc2ccc(-c3ccccn3)cc2)SC[C@H]1O [Example 10, 4-(2-Pyridinyl)phenyl 5-thio-β-D-xylopyranoside] | 197 | 86 |
| O[C@@H]1[C@@H](O)[C@H](Oc2cccc(-c3ccccn3)c2)SC[C@H]1O [Example 12, 3-(2-Pyridinyl)phenyl 5-thio-β-D-xylopyranoside] | 138 to 139 | 88 |
| O[C@@H]1[C@@H](O)[C@H](Oc2ccccc2-c2ccncc2)SC[C@H]1O [Example 16, 2-(4-Pyridinyl)phenyl 5-thio-β-D-xylopyranoside] | 134 |  |
| O[C@@H]1[C@@H](O)[C@H](Oc2ccccc2-c2cccnc2)SC[C@H]1O [Example 18, 2-(3-Pyridinyl)phenyl 5-thio-β-D-xylopyranoside] | 195 |  |
| O[C@@H]1[C@@H](O)[C@H](Oc2cccc(-c3cccnc3)c2)SC[C@H]1O [Example 22, 3-(3-Pyridinyl)phenyl 5-thio-β-D-xylopyranoside] | 197 | 81 |
| O[C@@H]1[C@@H](O)[C@H](Oc2ccc(-c3cccnc3)cc2F)SC[C@H]1O [Example 24, 2-Fluoro-4-(3-pyridinyl)phenyl 5-thio-β-D-xylopyranoside] | 207 |  |
| O[C@@H]1[C@@H](O)[C@H](Oc2cc(F)ccc2-c2ccncc2)SC[C@H]1O [Example 28, 5-Fluoro-2-(4-pyridinyl)phenyl 5-thio-β-D-xylopyranoside] |  | 71 |
| Cc1ccc(-c2cccc(O[C@@H]3SC[C@@H](O)[C@H](O)[C@H]3O)c2)cn1 [Example 29, 3-(6-Methyl-3-pyridinyl)phenyl 5-thio-β-D-xylopyranoside] | 177 |  |
| COc1ncccc1-c1cccc(O[C@@H]2SC[C@@H](O)[C@H](O)[C@H]2O)c1 [Example 33, 3-(2-Methoxy-3-pyridinyl)phenyl 5-thio-β-D-xylopyranoside] | 194 |  |
